Entries after “also recorded” stand apart in the source; their conditions may differ.
What was measured:
[1] = system: APP in SH-SY-5Y human neuroblastoma cells; assay: APP in vitro (Western blot) in neuroblastoma cells; assay type: cell-based; conditions: SH-SY-5Y cells; 0, 0.1, 1, 5 and 10 μM
[2] = system: APP and its fragments; assay: APP in vivo in APP/PS1 transgenic AD mice (hippocampus)
Text: FIG. 2, APP in vivo. […] GAPDH and Synaptophysin were loading controls. FIG. 2 also includes a collection of graphs showing relative density of APP plotted against control and time after buntanetap treatment; relative density of CTFβ plotted against control and time after buntanetap treatment; relative density of CTFα plotted against control and time after buntanetap treatment; A042 levels in brain tissue plotted against control and time after buntanetap treatment; and A040 levels in brain tissue plotted against control and time after buntanetap treatment. Finally, FIG. 2 also includes a Western blot showing levels of APP, NSB, CTFβ, and CTFα after buntanetap treatment over time (minutes).

[3] = system: APP/PS1 transgenic mice; assay: 2-day radial arm water maze (RAWM), spatial memory; assay type: in vivo
Description: (§1) Animals: Heterozygous double transgenic mice expressing both human APP (K670N:M671L) and human PS1 (M146L) (line 6.2) and their wild-type non-transgenic littermates, both males and females, were used for these experiments. They were obtained by a breeding colony maintained at the animal facility of Columbia University. They were genotyped through PCR on tail samples. Animals were injected i.p. from the age of […] for 1 month prior to starting behavioral assessment which lasted for 2 weeks during which treatment continued. Behavioral assessment examined spatial and associative memory. Finally, mice were sacrificed for electrophysiological assessment of synaptic function.
Mice were coded to blind investigators with respect to genotype and treatment. Results were expressed with Standard Error of the Mean (SEM). Level of significance was set for p<0.05. Results were analyzed by ANOVA analysis with post-hoc correction with the combination or genotype as main effect. Experiments were designed in a balanced fashion, and mice were trained and tested at each of the different conditions in 3 or 4 separate experiments.
Mice were i.p. injected with the drug from the age of 8 weeks prior to plaque appearance until behavioral assessment that started at 12 weeks of age and lasted for 2 weeks.
Spatial memory was studied with the 2-day radial arm water maze (RAWM) test. The task is a hybrid of the Morris Water Maze (MWM) and the radial arm land maze. The motivation for the animals is immersion in water. The mouse needs to swim in 6 alleys (arms) radiating from a central area until it finds a hidden (submerged) platform at the end of one of the arms, based on visual cues placed in the room. In the old RAWM version of the task, the goal arm varies from day to day, requiring 21 days of training in wild-type mice to reach the learning criterion. In the new version of the task, the goal arm is kept constant for all trials, with a different start arm on successive trials, such that the learning criterion will be reached in 2 days. The first day of the protocol was a training day. Mice were trained to identify the platform location by alternating between a visible and a hidden platform in a goal arm. The final 3 trials on day 1 and all 15 trials on day 2 used a hidden escape platform to force mice to use spatial cues to identify the location of the goal arm. To avoid learning limitations imposed by exhausting practice and to avoid fatigue that may result from consecutive trials, spaced practice training was established by running the mice in cohorts of 4 and alternating different cohorts through the 15 training trials over 3 hours testing periods each day. On day 1, a visible platform was laced in a goal location. Mouse 1 of cohort 1 was gently placed in the pool near the perimeter of the wall of the first start arm (specified on a score sheet) and facing the center of the pool. The number of incorrect arm entries (entries in arms with no platform) was counted. If the animal enters the incorrect arm it was gently pulled back to the start arm. Each trial lasted up to 1 min. Failure to select an arm after 15 sec was counted as an error and the mouse was returned to the start arm. After 1 min, if the platform had not been located, the mouse was guided gently through the water by placing a hand behind it to direct it towards the platform. The mouse rested on the platform for 15 sec. After completing the trial, the mouse was removed from the pool, gently towel dried and placed back into its cage under a heat lamp. The goal platform location was different for each mouse. […] After each mouse from cohort 1 completed six alternating trials between visible and hidden platforms, the mice were left to rest under a heating source, and mice from the second cohort were tested in the same way.

[4] = system: APP/PS1 transgenic mice; assay: Contextual fear conditioning (FC), associative memory; assay type: in vivo; conditions: Buntanetap 1 mg/Kg and/or dulaglutide 0.1 mg/Kg
Description: as §1
Mice were coded to blind investigators with respect to genotype and treatment. Results were expressed with Standard Error of the Mean (SEM). […] Results were analyzed by ANOVA analysis with post-hoc correction with the combination or genotype as main effect. […]
The combination effect on associative memory was assessed through fear conditioning (FC). […] Freezing behavior, defined as the absence of movements except for that needed for breathing, was scored using Noldus software. Contextual fear learning, a type of memory for which hippocampal function is indispensable, was evaluated 24 hrs after training by measuring freezing responses for 5 min in the same chamber where the mice have been trained. […]

[5] = system: aSYN; conditions: transgenic Parkinson's animals, in the brain and in the gut; cited from earlier work
[6] = system: rat acute glaucoma model; conditions: cited from earlier work
[7] = system: Huntingtin Protein; conditions: through Translational Suppression; cited from earlier work
[8] = system: APP, Tau, and aSYN in the cerebrospinal fluid (CSF) of MCI subjects; assay: CSF biomarkers in MCI subjects before and after 10 days of buntanetap (proof of mechanism); conditions: mildly cognitive impaired patients, 10 days of administration (FIG. 3)

SMILES: CN1CC[C@]2(C)c3cc(OC(=O)Nc4ccccc4)ccc3N(C)C12 (stereo partly drawn) [Buntanetap, (3aR)-1,3a,8-trimethyl-1,2,3,3a,8,8a-hexahydropyrrolo[2,3-b]indol-5-yl phenylcarbamate]
- APP in relation to Actin standard (Western blot) [1]: lowers APP in vitro in a dose-dependent manner
- time after the last dose for which APP and all related peptides in hippocampus were reduced ([2]; APP/PS1 mice): at least 9 hours
- APP and its fragments in hippocampus ([2]; APP/PS1 transgenic AD mice): reduced
- % Improvement (RAWM errors) ([3]; APP/PS1, Buntanetap 1 mg/kg): 29.4%
- Meran Number of Errors (RAWM) ([3]; APP/PS1, Buntanetap 1 mg/kg): 2.8
- Meran Number of Errors (RAWM) ([3]; APP/PS1, Buntanetap 10 mg/kg): 1.6
- % Improvement (RAWM errors) ([3]; APP/PS1, Buntanetap 10 mg/kg, 100% = difference of 1.7 errors): 100%
- impairment of short-term spatial memory measured through the 2-day radial arm water maze (RAWM) ([3]; APP/PS1 mice, Buntanetap 1 mg/Kg and/or dulaglutide 0.1 mg/Kg): did not ameliorate
- impairment of associative memory measured through contextual fear conditioning (FC) [4]: did not ameliorate
- aSYN in vivo [5]: lowers
- retina ([6]; acute glaucoma): Preserved
- nerve cells ([6]; rat acute glaucoma model): protected
- levels of Huntingtin Protein [7]: reduced
- APP/Abeta, tau/phospho-tau and alpha-synuclein in the spinal fluid [8]: reduction; also recorded: normalized
